Data published in the RepoRT retention time repository (doi:10.1039/c6ra10883k).

Test: Phenomenex Kinetex XB-C18, 100 × 2.1 mm, 1.7 µm, 35 °C, 0.3 mL/min, estimated dead time 0.73 min; A: water + 0.1% formic acid; B: acetonitrile + 0.1% formic acid; gradient (min/%B) 0/5 1/5 2/10 9/33 15/46 16/70 21/90 22/90
Conditions: stereoisomer not certain

LC retention time [min]	SMILES
3.9	COc1cc(C=CCO)cc(OC)c1OC1OC(CO)C(O)C(O)C1O (configuration not stated)
10.3	O=c1c(O)c(-c2ccc(O)cc2)oc2cc(O)cc(O)c12
7.5	CC(C)=CCCC(C)(OC1OC(CO)C(O)C(O)C1O)C1CC(C)C2(C)C3CC(OC4OC(CO)C(O)C(O)C4OC4OC(CO)C(O)C(O)C4O)C4C(C)(C)C(O)CCC4(C)C3CC(O)C12 (configuration not stated)
8.93	O=c1c(O)c(-c2ccc(O)c(O)c2)oc2cc(O)cc(O)c12
7.95	O=C(O)CC(C1=C(O)C(=C(O)C=Cc2ccc(O)cc2)C(=O)C(O)(C2OC(CO)C(O)C(O)C2O)C1=O)c1ccc(O)cc1 (configuration not stated)
10.9	CC(C)=CCCC(C)(O)C1CCC2(C)C1C(O)CC1C3(C)CCC(O)C(C)(C)C3C(OC3OC(CO)C(O)C(O)C3OC3OC(C)C(O)C(O)C3O)CC12C (configuration not stated)
7.28	CC(C)=CCCC(C)(OC1OC(CO)C(O)C(O)C1O)C1CCC2(C)C1C(O)CC1C3(C)CCC(O)C(C)(C)C3C(OC3OC(COC4OC(CO)C(O)C(O)C4O)C(O)C(O)C3O)CC12C (configuration not stated)
5.97	COc1cc(C=CC(=O)O)ccc1O
8.07	CC(C)=CCCC(C)(OC1OC(CO)C(O)C(O)C1O)C1CCC2(C)C1C(O)CC1C3(C)CCC(O)C(C)(C)C3C(OC3OC(CO)C(O)C(O)C3O)CC12C (configuration not stated)
6.67	O=C(C=Cc1ccc(O)cc1)C1=C(O)C2=C(OC(C(O)C(O)C(O)CO)C2C2=C(O)C(=C(O)C=Cc3ccc(O)cc3)C(=O)C(O)(C3OC(CO)C(O)C(O)C3O)C2=O)C(O)(C2OC(CO)C(O)C(O)C2O)C1=O (configuration not stated)
6.92	O=C(C=Cc1ccc(O)c(O)c1)OC1CC(O)(C(=O)O)CC(OC(=O)C=Cc2ccc(O)c(O)c2)C1O (configuration not stated)
12.4	CC(C)=CCCC(C)(OC1OC(CO)C(O)C(O)C1O)C1CCC2(C)C1C(O)CC1C3(C)CCC(OC4OC(CO)C(O)C(O)C4OC4OC(CO)C(O)C(O)C4O)C(C)(C)C3CCC12C (configuration not stated)
7.68	CC(C)=CCCC(C)(OC1OC(CO)C(O)C(O)C1O)C1CCC2(C)C1C(O)CC1C3(C)CCC(O)C(C)(C)C3C(OC3OC(CO)C(O)C(O)C3OC3OCC(O)C(O)C3O)CC12C (configuration not stated)
11.3	CC1(C)CCC2(C(=O)OC3OC(CO)C(O)C(O)C3O)CCC3(C)C(=CCC4C5(C)CCC(OC6OC(C(=O)O)C(O)C(O)C6OC6OC(CO)C(O)C(O)C6O)C(C)(C)C5CCC43C)C2C1 (configuration not stated)
16.6	CC(C)=CCCC(C)(O)C1CCC2(C)C1C(O)CC1C3(C)CCC(O)C(C)(C)C3C(O)CC12C (configuration not stated)
8.91	O=c1cc(-c2ccc(O)c(O)c2)oc2cc(O)cc(O)c12
6.12	O=c1c(O)c(-c2ccc(O)c(O)c2)oc2cc(OC3OC(CO)C(O)C(O)C3O)cc(O)c12 (configuration not stated)
9.5	CC(C)=CCCC(C)(OC1OC(CO)C(O)C(O)C1O)C1CCC2(C)C1C(O)CC1C3(C)CCC(OC4OC(CO)C(O)C(O)C4OC4OC(CO)C(O)C(O)C4O)C(C)(C)C3C(O)CC12C (configuration not stated)
15.4	CC(C)=CCCC(C)(OC1OC(CO)C(O)C(O)C1O)C1CCC2(C)C1C(O)CC1C3(C)CCC(OC4OC(CO)C(O)C(O)C4O)C(C)(C)C3CCC12C (configuration not stated)
4.17	O=C1C(=C(O)C=Cc2ccc(O)cc2)C(O)=C(C2OC(CO)C(O)C(O)C2O)C(=O)C1(O)C1OC(CO)C(O)C(O)C1O (configuration not stated)
9.85	CC(C)=CCCC(C)(OC1OC(COC2OC(CO)C(O)C(OC3OCC(O)C(O)C3O)C2O)C(O)C(O)C1O)C1CCC2(C)C1C(O)CC1C3(C)CCC(OC4OC(CO)C(O)C(O)C4OC4OC(CO)C(O)C(O)C4OC4OCC(O)C(O)C4O)C(C)(C)C3CCC12C (configuration not stated)

LC retention time [min]	SMILES
10.9	CC(C)=CCCC(C)(OC1OC(COC2OC(CO)C(O)C(O)C2O)C(O)C(O)C1O)C1CCC2(C)C1C(O)CC1C3(C)CCC(OC4OC(CO)C(O)C(O)C4OC4OC(CO)C(O)C(O)C4O)C(C)(C)C3CCC12C (configuration not stated)
6.86	O=c1c(OC2OC(CO)C(O)C(O)C2O)c(-c2ccc(O)cc2)oc2cc(O)cc(O)c12 (configuration not stated)
16.4	CCCC=C1OC(=O)C2=C1CCC=C2
17.3	CC(C)=CCCC(C)(OC1OC(CO)C(O)C(O)C1O)C1CCC2(C)C1C(O)CC1C3(C)CCC(O)C(C)(C)C3CCC12C (configuration not stated)
8.82	CC(C)=CCCC(C)(OC1OC(CO)C(O)C(O)C1O)C1CCC2(C)C1C(O)CC1C3(C)CCC(OC4OC(CO)C(O)C(O)C4OC4OC(CO)C(O)C(O)C4O)C(C)(C)C3=CC(O)C12C (configuration not stated)
11.1	CC(C)=CCCC(C)(OC1OC(COC2OC(CO)C(O)C(O)C2O)C(O)C(O)C1O)C1CCC2(C)C1C(O)CC1C3(C)CCC(OC4OC(CO)C(O)C(O)C4OC4OC(COC(=O)CC(=O)O)C(O)C(O)C4O)C(C)(C)C3CCC12C (configuration not stated)
5.99	CC1OC(OCC2OC(Oc3c(-c4ccc(O)c(O)c4)oc4cc(O)cc(O)c4c3=O)C(O)C(O)C2O)C(O)C(O)C1O (configuration not stated)
13.2	CC(C)=CCCC(C)(OC1OC(CO)C(O)C(O)C1O)C1CCC2(C)C1C(O)CC1C3(C)CCC(OC4OC(COC5OC(CO)C(O)C(O)C5O)C(O)C(O)C4O)C(C)(C)C3CCC12C (configuration not stated)
6.28	O=c1cc(-c2ccc(O)c(O)c2)oc2cc(OC3OC(CO)C(O)C(O)C3O)cc(O)c12 (configuration not stated)
14.9	C=C(CCC=C(C)C)C1CCC2(C)C1C(O)CC1C3(C)CCC(O)C(C)(C)C3C(OC3OC(CO)C(O)C(O)C3O)CC12C (configuration not stated)
14	C=C(CCC=C(C)C)C1CCC2(C)C1C(O)CC1C3(C)CCC(O)C(C)(C)C3C(OC3OC(CO)C(O)C(O)C3OC3OCC(O)C(O)C3O)CC12C (configuration not stated)
10.1	CC(C)=CCCC(C)(O)C1CCC2(C)C1C(O)CC1C3(C)CCC(O)C(C)(C)C3C(OC3OC(CO)C(O)C(O)C3OC3OC(CO)C(O)C(O)C3O)CC12C (configuration not stated)
6.6	CC1OC(OCC2OC(Oc3c(-c4ccc(O)cc4)oc4cc(O)cc(O)c4c3=O)C(O)C(O)C2O)C(O)C(O)C1O (configuration not stated)
11.6	CC(C)=CCCC(C)(OC1OC(COC2OCC(O)C(O)C2O)C(O)C(O)C1O)C1CCC2(C)C1C(O)CC1C3(C)CCC(OC4OC(CO)C(O)C(O)C4OC4OC(CO)C(O)C(O)C4O)C(C)(C)C3CCC12C (configuration not stated)
11.2	CC(C)=CCCC(C)(OC1OC(COC2OC(CO)C(O)C2O)C(O)C(O)C1O)C1CCC2(C)C1C(O)CC1C3(C)CCC(OC4OC(CO)C(O)C(O)C4OC4OC(CO)C(O)C(O)C4O)C(C)(C)C3CCC12C (configuration not stated)
12.7	CC(C)=CCCC(C)(OC1OC(CO)C(O)C(O)C1O)C1CCC2(C)C1C(O)CC1C3(C)CCC(OC4OC(CO)C(O)C(O)C4OC4OC(COC(=O)CC(=O)O)C(O)C(O)C4O)C(C)(C)C3CCC12C (configuration not stated)
10.5	CC(C)=CCCC(C)(OC1OC(COC2OC(CO)C(O)C(OC3OCC(O)C(O)C3O)C2O)C(O)C(O)C1O)C1CCC2(C)C1C(O)CC1C3(C)CCC(OC4OC(CO)C(O)C(O)C4OC4OC(CO)C(O)C(O)C4O)C(C)(C)C3CCC12C (configuration not stated)
18.2	CCCC=C1OC(=O)C2=C1CCC1C3C=C4C(=O)OC(=CCCC)C4(CC3)C21 (configuration not stated)
10.2	CC(C)=CCCC(C)(OC1OC(COC2OC(COC3OCC(O)C(O)C3O)C(O)C(O)C2O)C(O)C(O)C1O)C1CCC2(C)C1C(O)CC1C3(C)CCC(OC4OC(CO)C(O)C(O)C4OC4OC(CO)C(O)C(O)C4O)C(C)(C)C3CCC12C (configuration not stated)
6.76	O=C(C=Cc1ccc(O)cc1)C1=C(O)C2=C(OC3(C2)OCC(O)C(O)C3O)C(O)(C2OC(CO)C(O)C(O)C2O)C1=O (configuration not stated)
7.09	CC(C)=CCCC(C)(OC1OC(COC2OC(CO)C(O)C(O)C2O)C(O)C(O)C1O)C1CCC2(C)C1C(O)CC1C3(C)CCC(O)C(C)(C)C3C(OC3OC(CO)C(O)C(O)C3O)CC12C (configuration not stated)
